# Source: patent publication US11944609B1, “Antifungal ionic liquid and Amphotericin B combination” (KING ABDULAZIZ UNIVERISTY, priority 2023, dated 2024)
# Columns and labels:
# C. auris [1] = assay: Checkerboard microdilution assay of ionic liquids with amphotericin B, with varied ratio isobolograms; type: cell-based, Candida auris; conditions: for Decrease in the MIC when used together: IPC8 + amphotericin B combination versus alone; for Average MIC values of individual compounds: alone; for MIC of ionic liquids in combination with AmB: 1:1 combination with amphotericin B; for FICb: fractional inhibitory concentration of amphotericin B; for FICa: fractional inhibitory concentration of the ionic liquid; for Type of interaction / ΣFIC: ionic liquid + amphotericin B
# Experimental: The type of interaction between ionic liquids and amphotericin B against C. auris was evaluated by the checkerboard microdilution method. The concentrations of ionic liquids used ranged from 5000-0.61 μg/mL, and amphotericin B was 64-0.06 μg/mL. Subsequently, equal volumes (50 μL) of ionic liquids and amphotericin B were dispensed into pre-determined wells, which were further supplemented with C. auris cells (0.5×103-2.5×10^3 cells/mL; 100 μL) followed by incubation at 35±2° C. for 24 h. Also, each experiment included DMSO (1%) was added as negative control along with growth and sterility controls. […] The interaction between the test compounds and amphotericin B was deduced according to the calculated coefficient of the sum of fractional inhibitory concentrations (ΣFIC).
# [formula] MICa=MIC of the ionic liquids; MICb=MIC of amphotericin B. The FICI values were interpreted as ΣFIC≤0.5, synergy; ΣFIC>0.5-≤1, additivity; ΣFIC>1-<2, no interaction; ΣFIC≥2, antagonism.
# C. auris [2] = assay: Antifungal susceptibility by broth microdilution (MIC) and SDA plating (MFC); type: cell-based, Candida auris; conditions: for Average MIC value / Average MFC value: compound alone, C. auris (2921); for Average MIC value: concentration giving 100% inhibition; for Average MFC value: no visible colonies on SDA after 24 h
# Experimental: In this work, the antifungal activity of the ionic liquids (IPC4-IPC12) against C. auris was investigated in terms of minimum inhibitory concentration (MIC) and minimum fungicidal concentration (MFC). A stock solution of 20 mg/mL was prepared in 1% Dimethyl sulfoxide (DMSO; Sigma-Aldrich, USA). Fourteen different concentrations of test ILs were prepared by performing serial dilution in a flat bottom 96-well microtiter plate, followed by the addition of C. auris cells (0.5×103-2.5×10^3 cells/mL; 100 μL) which gave us the final test concentrations of ILs (5000-0.61 μg/mL). Amphotericin B was used as a positive control, 1% DMSO as a negative control, and drug-free control was used in each set of experiments. The optical density was determined at a wavelength of 600 nm using SpectraMax iD3 multi-mode microplate reader, and the concentration resulting in 100% inhibition was picked up as the MIC value. Post-MIC evaluation, MFC was estimated by administrating 10 μL of samples from the wells displaying MIC and beyond on a Sabouraud Dextrose Agar (SDA) plate. The plates were incubated at 35±2° C. for 24 h, and the concentration resulting in no visible colonies was documented as MFC value for respective ionic liquids.
# [3] = Viscosity measurement (RHEOSENSE MicroVisc viscometer); type: physicochemical; conditions: 298K, atmospheric pressure
# [4] = Density measurement (Density Meter DMA 501); type: physicochemical; conditions: 298K, atmospheric pressure
# Experimental: The uncertainties in the density measurements, considering the sample handling and purity, are determined to be with an accuracy of 0.0001 g/cm3.
# C. auris [5] = assay: In vitro time-kill assay; type: cell-based, Candida auris; conditions: for Average log10 CFU/mL: healthy control 7.78
# Experimental: The assay for determining the time-kill kinetics values of IPC8 against C. auris was carried out at various concentrations (½, 1, 2, and 4 times the MIC) against C. auris. The C. auris cell suspension with a starting inoculum of around 1×105 to 5×10^5 CFU/mL was incubated with/without IPC8 at 35° C.±2° C. and 150 rpm. Aliquots (100 μL) were taken out at predetermined time points (0, 2, 4, 6, 8, 12, and 24 h), and for determining CFU counts, the aliquots were serially diluted in sterile water and plate (20 μL) on SDA growth medium. The plates were incubated at 35° C.±2° C. for 24 to 48 h, and the number of colonies was counted using a colony counter. The experiment was performed in duplicate, and the result is articulated in log 10 viable CFU/mL.
# [6] = test system: horse red blood cells (H-RBC); assay: Haemolytic activity (cytotoxicity on red blood cells); type: cell-based
# Experimental: The cytotoxicity of IPC8 on horse red blood cells (H-RBC) was checked by conducting a cytotoxicity assay. Briefly, the RBC was separated from the horse blood and was thoroughly washed with NaCl (150 mM) solution. Thereafter, RBC suspension (2%) was prepared in sterile PBS, followed by the addition (180 μL) to a microcentrifuge tube containing […] ([…]), the microcentrifuge tubes were kept aside for 45 min at 37° C. followed by centrifugation at 1300×g for 5 min. The supernatant (100 μL) was collected in a separate tube and mixed with 900 μL of sterile PBS. Aliquots (200 μL) were taken from each dilution and transferred to a 96-well flat bottom microtiter plate, and optical density was measured at 540 nm (SpectraMax iD3 multi-mode microplate reader, Molecular Devices). The negative control contained RBC suspension in PBS, and the positive control had RBC treated with 0.1% Triton X-100. To calculate the percentage of hemolysis below formula was used.
# [7] = nine ratios of IPC8 and amphotericin B (10:90 to 90:10), isobolograms
Compound,Average MIC values of individual compounds (C. auris [1]) [µg/mL],Average MIC value (C. auris [2]) [µg/mL],Average MFC value (C. auris [2]) [µg/mL],MIC of ionic liquids in combination with AmB (C. auris [1]) [µg/mL],FICb (C. auris [1]),FICa (C. auris [1]),Type of interaction (C. auris [1]),ΣFIC (C. auris [1]),Viscosity [3] [mPa],Density [4] [g/mL],further results
C[C@@H]1[C@H](O)[C@@H](C)/C=C/C=C/C=C/C=C/C=C/C=C/C=C/[C@H](O[C@@H]2O[C@H](C)[C@@H](O)[C@H](N)[C@@H]2O)C[C@@H]2O[C@](O)(C[C@@H](O)C[C@@H](O)[C@H](O)CC[C@@H](O)C[C@@H](O)CC(=O)O[C@H]1C)C[C@H](O)[C@H]2C(=O)O [Amphotericin B],2.0,2.0,4.0,–,–,–,–,–,–,–,Decrease in the MIC when used together (C. auris [1]): four-fold; Average MIC value (C. auris [2]; listed as amphotericin B): 2 µg/mL; Average MFC value (C. auris [2]; listed as amphotericin B): 4 µg/mL
"CCCC[n+]1ccn2ccccc21.[Br-] [IPC4, 1-Butylimidazo[1,2-a] pyridinium bromide]",78.12,78.12,312.5,39.06,1.0,0.5,"No INT (ΣFIC>1-<2, no interaction)",1.5,4.14,1.0310,–
"CCCCCC[n+]1ccn2ccccc21.[Br-] [IPC6, 1-Hexylimidazo[1,2-a] pyridinium bromide]",39.06,39.06,78.12,9.76,0.25,0.24,"SYN (ΣFIC≤0.5, synergy)",0.49,14.7,1.0102,–
"CCCCCCCC[n+]1ccn2ccccc21.[Br-] [IPC8, 1-Octylimidazo[1,2-a] pyridinium bromide]",4.88,4.88,9.76,1.22,0.125,0.25,"SYN (ΣFIC≤0.5, synergy)",0.38,25.21,1.0094,"Decrease in the MIC when used together (C. auris [1]): four-fold; Number of ratios (out of nine) with additive interaction (C. auris [1]; [7]): two; Number of ratios (out of nine) with strong synergistic effect (C. auris [1]; [7]): seven; Time to candidacidal endpoint (C. auris [5]; 2 times MIC): 12 h; Time to 50% reduction in the log10 CFU/mL from the inoculum (C. auris [5]; MIC): 12 h; Average log10 CFU/mL (C. auris [5]; after 24 hr exposure to MIC): 4.67 log10 CFU/mL; Average log10 CFU/mL (C. auris [5]; after 24 hr exposure to ½ MIC): 5.8 log10 CFU/mL; Time to 50% reduction in the number of CFU (C. auris [5]; four times MIC): 2 h; Time to candidacidal endpoint (C. auris [5]; four times MIC): 24 h; Nature of activity in time-kill curve (C. auris [5]; kill of ≥log 3, concentration- and time-dependent): fungicidal; Time to 50% reduction in the number of CFU (C. auris [5]; two times MIC): 4 h; Haemolysis ([6]; 156.25 μg/mL): 16.14%; Fold lower MIC and MFC values compared to other tested ionic liquids (C. auris [2]; IPC8 versus other ionic liquids): 3 to 8 fold"
"CCCCCCCCCC[n+]1ccn2ccccc21.[Br-] [IPC10, 1-Decylimidazo[1,2-a] pyridinium bromide]",78.12,78.12,312.5,19.53,0.5,0.25,"ADD (ΣFIC>0.5-≤1, additivity)",0.75,27.20,1.0081,–
"CCCCCCCCCCCC[n+]1ccn2ccccc21.[Br-] [IPC12, 1-Dodecylimidazo[1,2-a] pyridinium bromide]",312.5,312.5,625,156.25,0.5,0.25,"ADD (ΣFIC>0.5-≤1, additivity)",0.75,28.60,1.0049,–
triton X-100 [reference compound],–,–,–,–,–,–,–,–,–,–,Haemolysis (observation) [6]: clear haemolysis
